This assay has as its target P2Y purinoceptor 1 (Homo sapiens, UniProt P47900). The assay can be described thus: pA2 value was evaluated against P2Y purinoceptor 1.

Sequence of P2Y purinoceptor 1 (P47900 whole entry): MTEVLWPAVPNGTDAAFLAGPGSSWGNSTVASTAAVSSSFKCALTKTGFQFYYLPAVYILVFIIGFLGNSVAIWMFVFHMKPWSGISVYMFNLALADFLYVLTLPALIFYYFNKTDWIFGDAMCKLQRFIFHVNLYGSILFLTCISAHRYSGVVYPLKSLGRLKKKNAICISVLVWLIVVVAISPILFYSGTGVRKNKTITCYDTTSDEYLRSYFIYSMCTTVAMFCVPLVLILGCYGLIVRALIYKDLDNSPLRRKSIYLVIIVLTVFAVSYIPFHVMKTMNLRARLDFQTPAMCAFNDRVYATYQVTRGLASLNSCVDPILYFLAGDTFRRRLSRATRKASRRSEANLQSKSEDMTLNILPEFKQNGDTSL

In the case of `CNc1nc(C)nc2c1ncn2C1CC(OP(=O)(O)O)C(COP(=O)(O)O)O1` (stereo unspecified), binding was put at a Kd of 77.6 nM. This lies in the double-digit nanomolar range.

The values above are taken from BindingDB's records for doi:10.1021/jm0104062 (Louis Pasteur University, 2002).
